We go through eight compounds from US11246965B2, “Compositions and methods for reducing neointima formation” (University of Georgia Research Foundation, Inc., priority 2013, dated 2022).

For data set [1], the system named is Endothelial cell C166. The data set is described as follows: EC proliferation (MTT cell proliferation assay). The format is cell-based. As to the method:
Endothelial cell C166 was purchased from ATCC and grown at 37° C. in a humidified atmosphere of 5% CO2 in DMEM (Invitrogen) supplemented with 10% FBS.
(§1) Cell proliferation was evaluated with 3-(4,5-dimethylthiazol-2-yl)-2,5-diphenyltetrazolium (MTT) assay using a TACS MTT Cell Proliferation Assay Kit (Trivegen). The optical density at 570 nm was measured.
(In general: Formazan colour is commonly taken as a measure of viable cells.)

Data set [2] concerns Rat aortic smooth muscle cells (SMCs). The data set is described as follows: SMC proliferation (MTT cell proliferation assay). The format is cell-based. Here is the method:
Rat aortic smooth muscle cells (SMCs) were cultured by enzyme-digestion method from rat thoracic aorta as described previously (Hofer, et al., Proc Natl Acad Sci USA., 98:6412-6416 (2001), Marquez, et al., Biochem Pharmacol., 41:1821-1829 (1991), (Berg, et al., Eur. J. Biochem., 216:161-167 (1993)). SMC phenotype of the cultured cells was confirmed by the expression of smooth muscle alpha-actin and SM22-alpha.
as §1

Data set [3] concerns wire-injured mouse carotid artery. The data set can be described thus: Mouse carotid artery wire injury model, re-endothelialization (Evans Blue). The format is in vivo. Conditions: 10 mg/kg/day, in the presence of CPEC. As to the method:
Mice were anesthetized with ketamine hydrochloride (80 mg/kg IP) and xylazine (5 mg/kg IP), a 0.38-mm flexible angioplasty guidewire was advanced by 1 cm via a transverse arteriotomy of the external carotid artery, and endothelial denudation of the common carotid artery was achieved by 3 rotational passes (Werner, et al., Circ. Res., 93:e17-e24 (2003)).
To further establish CTPS function in re-endothelialization after vascular injury, the endothelial denudation and re-endothelialization was tested in a different model, i.e., mouse wire-injury model. […] Systematic administration of CPEC was achieved via osmotic pump (1 mg/kg/day). Re-endothelialization in mouse arteries occurred rapidly following injury (FIG. 6B). 5 days after injury, re-endothelialization was completed, consistent with the previous reports (Hagensen, et al., Cardiovasc Res., 93:223-231 (2012)).

Data set [4] relates to CTP synthetase. Particulars: cited from earlier work; for CTPS activity: literature.
Data set [5] concerns neointima SMCs. The data set can be described thus: In vivo cell apoptosis by TUNEL assay in injured arteries. The arrangement: species or system rat. Conditions: 2 mg/kg b.w./day. Here is the method: (§2) In vivo cell apoptosis was evaluated by detecting DNA fragmentation using the terminal deoxynucleotidyl transferase (TdT)-mediated dUTP-digoxigenin nick end-labeling method (TUNEL kit, Roche, USA). Apoptotic cells were observed under a fluorescent microscope. In vitro cell apoptosis was measured by Flow Cytometry. Cells were stained with both Annexin V-FITC (BD Biosciences) and propidium iodide (PI) and analyzed on a FACSCALIBUR™ (Becton Dickinson). The percentages of positive-stained cells were quantified using […]™ software (Becton Dickinson). Non-stained cells served as controls.
To confirm the specificity of CTPS1 function, CTPS1 was knockdown using adenoviral-mediated shRNA delivery in injured arteries.

Data set [6] deals with Rat aortic smooth muscle cells (SMCs). The data set is described as follows: In vitro SMC apoptosis, PI/Annexin V flow cytometry. The format is cell-based. Particulars: 24 h treatment with 500 nM. As to the method:
as §2
(In general: In flow cytometry, cells or beads pass a laser one at a time.)

Data set [7] deals with balloon-injured rat carotid arteries. The data set is described as follows: Re-endothelialization in rat carotid artery balloon injury model (CD31, Evans blue). Particulars: 1 mg/kg CPEC, day 14. The format is in vivo. As to the method: Rat carotid artery balloon injury was performed using 2F Fogarty arterial embolectomy balloon catheter (Baxter Edwards Healthcare) as described previously (Tulis, Methods Mol. Med., 139:1-30 (2007)). 7, 14 or 60 days later, the balloon-injured arteries were perfused with saline, fixed with 4% paraformaldehyde, embedded in paraffin, and sectioned. Subsequent morphometric analyses were performed in a double-blinded manner. Ten sections that were evenly distributed in the vessel segments were collected for analysis. The sections were stained with modified hematoxylin and eosin or elastica van Gieson (VG) staining. Cross-sectional images were captured with a Nikon microscope (Nikon America Inc). The circumference of the lumen, internal elastic lamina, and external elastic lamina were measured using Image-pro Plus Software. For immunohistochemistry (IHC) staining, sections were rehydrated, blocked with 5% goat serum, permeabilized with 0.01% Triton X-100 in PBS, and incubated with primary antibodies at 4° C. overnight followed by incubation with horseradish peroxidase-conjugated secondary antibody. The sections were counterstained with hematoxylin.
To determine if CTPS1 plays a role in re-endothelialization during vascular remodeling in vivo, CPEC was administered systematically via osmotic pump into rats with balloon-injury or mice with wire-injury in their carotid arteries. […]

The mark [8] stands for this setting: abundant (10 μM) cytidine alone (FIG. 6D).

Regarding `Nc1ccn([C@@H]2O[C@H](COP(=O)(O)OP(=O)(O)OP(=O)(O)O)[C@@H](O)[C@H]2O)c(=O)n1` [CTP], in data set [1] (setting [8]), the EC proliferation entry is “not to be able to stimulate”. Moreover, the SMC proliferation result in data set [2] (setting [8]) is on record as “not to be able to stimulate”.
For the compound `O=c1oc2c(O)c(O)cc3c(=O)oc4c(O)c(O)cc1c4c23` [EA, ellagic acid], the re-endothelialization entry in data set [3] is recorded as “dramatically impaired”. In addition, the “cytidine-restored EC proliferation” value in data set [1] (CPEC + cytidine) was “blocked cytidine-restored EC proliferation in a dose-dependent manner”.
In the case of `Nc1ccn([C@@H]2O[C@H](CO)[C@@H](O)[C@H]2O)c(=O)n1` [cytidine], the “restoration of EC proliferation blocked by high dosage of CPEC” value in data set [1] (500 nM CPEC + 10 μM cytidine) was “restored EC”. Further, the “restoration of SMC proliferation blocked by high dosage of CPEC” value in data set [2] (500 nM CPEC + 10 μM cytidine) is on record as “not SMC”.
For carbodine, the CTPS activity entry in data set [4] is given as “effectively block CTPS activity”.
Take `N[C@H](C(=O)O)[C@@H]1CC(Br)=NO1` [3-bromoacivicin]: in data set [4] (Conti, et al, ChemMedChem (2011)), the “CTP synthetase inhibitor potency relative to 3-chloro analog (acivicin)” value is “three times as potent”.
Regarding `Nc1ccn([C@@H]2C=C(CO)[C@@H](O)[C@H]2O)c(=O)n1` [CPEC, cyclopentenyl cytosine], the “in vivo cell apoptosis (TUNEL)” value in data set [5] is “no apoptotic cells were observed”. The SMC apoptosis entry in data set [6] is on record as “did not induce SMC apoptosis”. Also, the “re-endothelialization area of the injured vessels (Evans blue)” value in data set [7] was 66%.
`CC(=O)O[C@H]1C(=O)[C@@]2(C)[C@H]([C@H](OC(=O)c3ccccc3)[C@]3(O)C[C@H](OC(=O)[C@H](O)[C@@H](NC(=O)c4ccccc4)c4ccccc4)C(C)=C1C3(C)C)[C@]1(OC(C)=O)CO[C@@H]1C[C@@H]2O` [paclitaxel, Paclitaxel]: the EC proliferation entry in data set [1] (20 nmol/L or 500 nmol/L) is reported as “suppressed”. The “restoration of inhibitory effect on EC and SMC proliferation by cytidine” value in data set [1] (500 nM paclitaxel with 10 μM cytidine) was “could not be restored by cytidine”. Further, the “relative sensitivity of SMCs and ECs (proliferation)” value in data set [1] (ECs compared with SMCs) is given as “ECs seemed to be more sensitive to paclitaxel than SMCs”. In data set [2] (20 nmol/L or 500 nmol/L), the SMC proliferation entry is recorded as “suppressed”.
For `[N-]=[N+]=CC(=O)CC[C@H](N)C(=O)O` [6-diazo-5-oxonorleucine, 6-diazo-5-oxo-L-norleucin], the CTPS activity result in data set [4] is given as “effectively block CTPS activity”.
